Laboratory results from the METLIN SMRT retention time set (Domingo-Almenara et al. 2019).

Experiment: gradient 5% acetonitrile 3 min, to 50% in 2 min, to 85% in 15 min, held 3 min, 100 µL/min
Conditions: column: Zorbax Extend-C18 2.1 x 50 mm; eluents: water / acetonitrile, 0.1% formic acid
Summary of the method: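 Each retention time is based on an adduct peak selected computationally and verified by manual inspection. Measurements used HPLC–quadrupole time-of-flight mass spectrometry in positive and negative ionization mode on mixtures of ~100 pure standards. Chromatography ran on a Zorbax Extend-C18 column (2.1 × 50 mm, 1.8 μm) at 100 μL/min with water and acetonitrile, each containing 0.1% formic acid, and dead and dwell volumes of 40 μL and 900 μL.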

SMILES	RP-LC retention time [s]
COc1ccc(Cl)cc1NC(=O)Nc1ccc2c(c1)CCN2S(=O)(=O)c1ccccc1	1090
O=C(Nc1ccccc1)c1nnc(CSCC(=O)N2CCN(c3ccccn3)CC2)s1	631
O=C(CCS(=O)(=O)c1ccc(Cl)cc1)Nc1nccs1	679
CCOC(=O)N1CCN(C(=O)c2cc(S(=O)(=O)N3CCOCC3)ccc2OC)CC1	636
COCc1noc(CC2CCOC3(CCN(C(=O)C4(c5ccccc5)CC4)CC3)C2)n1 (stereo unspecified)	820
Cc1csc(-c2cc(S(=O)(=O)N3CCC(C)CC3)cn2CC(=O)N2CCCCC2)n1	1130
Cc1ccc(C)c(-c2cc3c(=O)n(Cc4nc(-c5ccccc5)no4)ncn3n2)c1	1200
CCCCCCCCN[C@H](C)[C@@H](O)c1ccc(SC(C)C)cc1	1030
COc1ccc(-c2noc(C3CC(=O)N(c4ccc5c(c4)OCO5)C3)n2)cc1OC (stereo unspecified)	886
COC1CN(C2CCN(C(=O)c3cccs3)CC2)C12CCOCC2 (stereo unspecified)	572
COc1ccc(NC(=O)N2[C@H]3CC[C@@H]2c2cncnc2C3)c(C)c1	634
CCc1nc2cc(N3CCC(C(=O)NCCN4CCCC4)CC3)cnc2nc1CC	600
CCS(=O)(=O)N1CCCc2cc(C(=O)Nc3cc(OC)c(Cl)cc3OC)ccc21	1040
CCOC(=O)N1CCc2c(sc(NC(=O)C3CCCN(S(C)(=O)=O)C3)c2C#N)C1 (stereo unspecified)	767
COc1cc2ncc(-c3ccccc3)nc2cc1OC	1020
CC(C)n1c(N2CCN(C(=O)Cc3cccs3)CC2)cc(=O)n(C(C)C)c1=O	829
NNC(=O)CNc1cccc(Br)c1	673
COc1cc([C@@H]2c3cc4c(cc3[C@H](O)[C@@H](CO)[C@@H]2C(=O)N2CCN(C(C)C)CC2)OCO4)cc(OC)c1OC	608
COc1cc([C@@H]2c3cc4c(cc3[C@H](O)[C@@H](CO)[C@@H]2C(=O)NCCCN(C)C2CCCCC2)OCO4)cc(OC)c1OC	573
Cc1ccc(-c2nc(-c3ccc(-n4ccnc4)nc3)no2)cc1C	857
CC(C)(C)C(=O)Nc1ccc2nc(N3CCN(c4ccccc4Cl)CC3)cc(C(=O)O)c2c1	750
Cc1nccn1Cc1nc(-c2ccc(F)c(Cl)c2)no1	654
CC(=O)N1CCc2ccc(C(=O)NC3CCCCCC3)cc21	778
COc1ccc(NC(=O)Nc2cccc(-c3ccc(N4CCOCC4)nn3)c2)cc1OC	586
Cc1cccc(-c2nc(Cc3noc(COc4ccccc4)n3)c(C)o2)c1	1170
CCc1ccccc1S(=O)(=O)N(C)CC1CCOCC1	902
Cc1ccc(-c2cc(C(=O)N3CCC(NC(=O)C4CCCCC4)CC3)[nH]n2)c(C)c1	811
O=C(C1CCCO1)N1CCC(OCc2nc(-c3ccccc3)no2)CC1 (stereo unspecified)	778
Cc1ccc(Nc2c(-c3ccc(C(=O)O)cc3)nc3cnccn23)cc1	766
CCOc1ccc(-c2nc(COc3cc(C(F)(F)F)c4c(C)nn(C)c4n3)c(C)o2)cc1OC	1330

Other lines, results leading:

RP-LC retention time [s]	SMILES
967	Cn1cc(SCC(=O)Nc2ccccc2C(F)(F)F)c2ccccc21
712	CCOCCCNC(=O)Cn1c(=O)c2cccn2c2ccc(F)cc21
792	CNC(=O)N1CCCC(c2cccc(C(=O)NC(C)c3ccc(F)cc3)c2)C1 (stereo unspecified)
664	CCN(CC)CCCNC(=O)C(C)n1c(=O)c(C(F)(F)F)nc2ccccc21 (stereo unspecified)
835	Cc1cccc(CN2N=C(C(=O)N3CCOCC3)S(=O)(=O)c3ccc(C)cc32)c1
880	CC1CCN(C(=O)CCCN2C(=O)CCn3nc(-c4cn(C)c5ccccc45)cc32)CC1
600	CN(C)CCNC(=O)c1ncn2c1C(=O)N(C1CC1)C(C)(C(=O)NCc1ccc(F)cc1)C2 (stereo unspecified)
728	Cc1cccc(NC(=O)Cn2c(C(C)C)nc3c(c2=O)CCN(Cc2ccccc2)C3)c1
728	CCCNc1cc(N2CCCC(CCC(=O)Nc3ccc(OCC)cc3)C2)ncn1 (stereo unspecified)
1100	CCc1cc(=O)n(CC(=O)Nc2ccc3c(c2)OCO3)c(-c2cccc(F)c2)n1
769	Cc1ccc(-n2c(C)c(C)c3c(=O)n(CC(=O)NC4CC4)cnc32)cc1
1050	CCN1C(=O)COc2ccc(-c3csc(NC(=O)c4cc(OC)cc(OC)c4)n3)cc21
745	CCOc1cc(C(=O)NC(C)C(=O)Nc2nc3ccccc3[nH]2)cc(OCC)c1OCC (stereo unspecified)
660	CCc1nc(-c2csc(S(=O)(=O)N3CCCC(C(=O)NCc4cccnc4)C3)c2)no1 (stereo unspecified)
650	CCOC(=O)C1=C(CN2CCC(C(=O)OCC)CC2)NC(=O)NC1c1ccc(F)cc1 (stereo unspecified)
546	CCCCN(C)C(=O)CCC(=O)Nc1ccc2nc(N3CCN(C)CC3)cc(C)c2c1
847	CC(C)c1cc(C2CCCN2C(=O)c2ccccc2)no1 (stereo unspecified)
1070	COc1ccc(Cl)cc1NC(=O)N1CCCC(C)(C(=O)NCc2ccccc2C)C1 (stereo unspecified)

RP-LC retention time [s]	SMILES
651	CN(C)CCn1nnc2cc(-c3noc(-c4ccc(F)cc4)n3)ccc21
696	CCCC(NC(=O)c1cccc(OC)c1)C(=O)Nc1nc2ccccc2[nH]1 (stereo unspecified)
798	CCOC(=O)C1CCCN(S(=O)(=O)c2cccc3cccnc23)C1 (stereo unspecified)
1190	O=C(CSc1cc(N2CCN(c3ccccc3F)CC2)ncn1)NCCC1=CCCCC1
693	CCn1cc(CCNC(=O)Nc2ccccc2)c2cccnc21
736	CCc1ccc(NC(=O)Nc2cccc(-c3nnc4n3CCCC4)c2)cc1
854	Cc1nc(-c2noc(-c3ccc(F)cc3)n2)cn1CC(=O)NC(C)c1ccccc1 (stereo unspecified)
912	COCCN(CC(=O)N1CCc2sccc2C1COc1cccc(F)c1)C(=O)C(C)C (stereo unspecified)
840	CCS(=O)(=O)c1ccc(-c2ccc(NC(=O)c3cc(Cl)ccc3Cl)cc2)nn1
719	O=C(NCc1ccc2c(c1)OCO2)C1CCN(C(=O)c2cccc(F)c2)CC1
1190	CC(C)CC(=O)NCCC1CCN(C(=O)Nc2cc(F)ccc2F)CC1
1040	Cc1cc(NC(=O)C2CCN(S(C)(=O)=O)c3ccccc3O2)ccc1Br (stereo unspecified)
678	COc1ccccc1CC(=O)Nc1cccn2c(C)nnc12
822	COC(=O)c1cc(OCC(=O)Nc2ccc(F)cc2F)c2cc(OC)ccc2n1
607	COC(=O)CNC(=O)Nc1ncc(-c2ccc(OC)cc2)n1C
850	O=C(CCCS(=O)(=O)c1ccc(F)cc1)Nc1cccc(Cl)c1Cl
742	COc1ccc(F)cc1S(=O)(=O)N1CCCC(Cn2c(C3CC3)nc3cccnc32)C1 (stereo unspecified)
912	CCc1ccc(NC(=O)C2CCN(S(C)(=O)=O)c3ccccc3O2)cc1 (stereo unspecified)
